Measurements taken from patent US20190315966A1, “COMPOUNDS FOR THE DETECTION OF SENESCENT CELLS” (THE UNIVERSITY OF MANCHESTER, priority 2016, published 2019).
One block for each molecule: values may come before it.

Tests used:
[1] = test system: lipofuscin rich cells in human seminal vesicle and human liver with steatohepatitis; experiment: Control staining of reference tissues with high lipofuscin content (seminal vesicle, liver with steatohepatitis); details: human seminal vesicle and liver with steatohepatitis sections
Procedure: (§1) Tissue sections were obtained from paraffin embedded, formalin fixed: (a) human seminal vesicle and (b) human liver with steatohepatitis that have high content of lipofusin making them ideal reference (control) tissues to test the SBB assay. Subsequently, they were immobilized on glass microscopy slides by standard procedures and processed as follows: • a. Deparaffinization for 5 min at room temperature in xylene. • b. Gradual rehydration in solutions of descending concentration of ethanol (100%, 80%, 70%, 50% v/v) and finally in TBS (Tris-buffered saline) or PBS (Phosphate-buffered saline) solution. • c. The SSB dye was diluted in 70% ethanol (v/v), filtered and then applied on tissue sections for 10 min. • d. Quick wash in 50% (v/v) ethanol. • e. Transfer and wash in TBS or PBS solution. • f. Counterstain with Hematoxylin or Nuclear Fast Red, followed by mounting with glycerol and sealed with a cover slip. • g. Microscopy observation.
Tissue sections were obtained from paraffin embedded, formalin fixed: (a) human seminal vesicle and (b) human liver with steatohepatitis that have high content of lipofusin making them ideal reference (control) tissues to test the performance of the LG9 compound. Subsequently, they were immobilized on glass microscopy slides by standard procedures and processed as follows: • a. Deparaffinization for 5 min at room temperature in xylene. • b. […]

[2] = test system: senescent cells in mouse lung adenomas; experiment: Histochemical staining of paraffin embedded, formalin fixed tissue sections, mouse lung adenomas; details: mouse lung adenoma sections; stain in 70% ethanol, 10 min; microscopy
Procedure: as §1, with “(a) irradiated” for “(a)”, “laryngeal tumors” for “seminal vesicle”, “mouse lung adenomas,” for “human liver”, “established presence” for “steatohepatitis that have high content”, “senescent cells [as described in Georgakopoulou et al, Aging (Albany N.Y.) 2013].” for “lipofusin making them ideal reference (control) tissues to test the SBB assay.”
(§2) Tissue sections were obtained from paraffin embedded, formalin fixed: (a) irradiated human laryngeal tumors and (b) mouse lung adenomas. Subsequently, they were immobilized on glass microscopy slides by standard procedures and processed as follows: • a. Deparaffinization for 5 min at room temperature in xylene. • b. […]

[3] = Ethanol solubility of the stain in the histochemical method; format: physicochemical; details: stain diluted in ethanol / 70% ethanol (v/v) and filtered
[4] = test system: senescent cells in human thymus; experiment: Histochemical staining of human thymus tissue sections (cortex and medulla); details: cortex and medulla of the human thymus
Procedure: as §1, with “fixed,” for “fixed: (a)”, “thymus” for “seminal vesicle”, “specifically from the cortex and medulla” for “(b) human liver with steatohepatitis that have high content”, “this organ.” for “lipofusin making them ideal reference (control) tissues to test the SBB assay.”, “LG9 SBB-analogue” for “SSB dye”

[5] = test system: senescent cells in irradiated human laryngeal tumors; experiment: Histochemical staining of paraffin embedded, formalin fixed tissue sections, irradiated human laryngeal tumors; details: irradiated human laryngeal tumor sections; stain in 70% ethanol, 10 min; microscopy
Procedure: as §1, with “(a) irradiated” for “(a)”, “laryngeal tumors” for “seminal vesicle”, “mouse lung adenomas,” for “human liver”, “established presence” for “steatohepatitis that have high content”, “senescent cells [as described in Georgakopoulou et al, Aging (Albany N.Y.) 2013].” for “lipofusin making them ideal reference (control) tissues to test the SBB assay.”
as §2

[6] = test system: senescent cells in liver biopsies; experiment: Histochemical staining of liver tissue sections with high content of lipofuscin
Procedure: as §1, with “fixed” for “fixed: (a) human seminal vesicle and (b) human”, “biopsies” for “with steatohepatitis”, “lipofusin.” for “lipofusin making them ideal reference (control) tissues to test the SBB assay.”, “LG46 or LG48 analogue” for “SSB dye”

Saos2-p53 Tet-On cells = experiment: Histochemical staining of cell spreads on cover slips; format: cell-based; details: Saos2-p53 Tet-On cells after p53 induction; stain in ethanol, 10 min
Procedure: (§3) Saos2-p53 Tet-On cells were grown on cover slips and collected after p53 induction to induce senescence. Cover slips were treated as follows: • a. Fixation in ice-cold ethanol or methanol for 4 min. • b. Application of SSB Dye, diluted in ethanol and filtered, on cells for 10 min. • c. Quick wash in 50% (v/v) ethanol. • d. Transfer and wash in TBS or PBS solution. • e. Counterstain with Nuclear Fast Red, followed by mounting with glycerol and sealing with a cover slip. • f. Microscopy observation.
as §3, with “collected […]” for “collected”, “the LG9 SBB-analogue,” for “SSB Dye,”

[7] = per Georgakopoulou et al, Aging 2013; cited from earlier work

- melting point: 124 to 126 °C
Compound: CC1(CCCO)Nc2cccc3c(/N=N/c4ccc(/N=N/c5ccccc5)c5ccccc45)ccc(c23)N1 (stereo not drawn) [Example 5, 3-(2-Methyl-6-((E)-(4-((E)-phenyldiazenyl)naphthalen-1-yl)diazenyl)-2,3-dihydro-1H-perimidin-2-yl)propan-1-ol]

Compound: CC1(CO)Nc2cccc3c(/N=N/c4ccc(/N=N/c5ccccc5)c5ccccc45)ccc(c23)N1 (stereo not drawn) [LG9, (2-methyl-6-((E)-(4-((E)-phenyldiazenyl)naphthalen-1-yl)diazenyl)-2,3-dihydro-1H-perimidin-2-yl)methanol]
- staining of lipofuscin rich cells [1]: stained cells
- staining of senescent cells [2]: stained senescent cells
- ethanol solubility in the staining method [3]: does not encounter the ethanol solubility problems
- staining of senescent cells [4]: stained senescent cells
- staining of senescent cells [5]: stained senescent cells

Compound: CC1(C)Nc2cccc3c(/N=N/c4ccc(/N=N/c5cccc(O)c5)c5ccccc45)ccc(c23)N1 [LG46, 3-((E)-(4-((E)-(2,2-dimethyl-2,3-dihydro-1H-perimidin-6-yl)diazenyl)naphthalen-1-yl)diazenyl)phenol]
- ethanol solubility in the staining method [3]: does not encounter the ethanol solubility problems
- staining of cells [6]: stained cells

Compound: CC1(C)Nc2cccc3c(/N=N/c4ccc(/N=N/c5ccc(CCO)cc5)c5ccccc45)ccc(c23)N1 [LG48, 2-(4-((E)-(4-((E)-(2,2-dimethyl-2,3-dihydro-1H-perimidin-6-yl)diazenyl)naphthalen-1-yl)diazenyl)phenyl)ethanol]
- ethanol solubility in the staining method [3]: does not encounter the ethanol solubility problems
- staining of cells [6]: stained cells

Compound: CC1(C)Nc2cccc3c(/N=N/c4ccc(/N=N/c5ccccc5)c5ccccc45)ccc(c23)N1 [SBB, Sudan Black B, reference compound]
- staining of lipofuscin rich cells [1]: stained cells
- staining of senescent cells [2]: clearly stained
- staining of senescent cells (Saos2-p53 Tet-On cells): clearly stained
- ethanol solubility of the SBB stain [7]: ethanol solubility problems
- staining of senescent cells [5]: clearly stained
